Measured values as given in article PMC8062481, “Crystal structures of an E1–E2–ubiquitin thioester mimetic reveal molecular mechanisms of transthioesterification” (Nature Communications, 2021).

Legend:
[1] = target: T1, Uba1–Cdc34^A141K–Ub(t) (covalently trapped E1–E2–ubiquitin thioester mimetic) (Saccharomyces cerevisiae, UniProt P22515); test: X-ray crystallography, […] Å; conditions: crystals grown with 1 mM ATP, 5 mM MgCl2 and excess Ub; ATP binding pocket of Uba1 adenylation domain; AMP in seven of eight copies
T1 construct: Uba1 11-1024 and Cdc34 1-195 (A141K), N-terminal TEV-cleavable 6xHis, E. coli BL21(DE3); Uba1 C600-Cdc34 C95 disulfide; Ub Gly76 isopeptide-linked to Cdc34 K141; with Ubiquitin-conjugating enzyme E2-34 kDa; Ubiquitin

[2] = target: T2, S. cerevisiae Uba1 residues 11-1024 (S. cerevisiae, UniProt P22515 11-1024, Cys600 disulfide-linked to Cys95 of Cdc34 (in the crystallised complex)); test: crystal structure; covalently trapped Uba1–Cdc34^A141K–Ub(t) complex (Cys600–Cys95 disulfide, A141K–Gly76 isopeptide bond), 100 μM, crystallised with free Ub (200 μM), 1 mM ATP and 5 mM MgCl2 at 18 °C; 3.43 Å; eight copies, four open and four closed; conditions: both partners purified
T2 construct: Uba1 (ubiquitin E1), S. cerevisiae, residues 11-1024; In the structure it is covalently trapped with Cdc34^A141K-Ub(t) through a disulfide between the catalytic cysteines; also called E1; ScUba1; source: E. coli BL21 (DE3) Codon Plus, purified (Ni-NTA, Superdex 200, MonoQ); not shown: His6, N-terminal, cleaved
T2 sequence (P22515 11-1024): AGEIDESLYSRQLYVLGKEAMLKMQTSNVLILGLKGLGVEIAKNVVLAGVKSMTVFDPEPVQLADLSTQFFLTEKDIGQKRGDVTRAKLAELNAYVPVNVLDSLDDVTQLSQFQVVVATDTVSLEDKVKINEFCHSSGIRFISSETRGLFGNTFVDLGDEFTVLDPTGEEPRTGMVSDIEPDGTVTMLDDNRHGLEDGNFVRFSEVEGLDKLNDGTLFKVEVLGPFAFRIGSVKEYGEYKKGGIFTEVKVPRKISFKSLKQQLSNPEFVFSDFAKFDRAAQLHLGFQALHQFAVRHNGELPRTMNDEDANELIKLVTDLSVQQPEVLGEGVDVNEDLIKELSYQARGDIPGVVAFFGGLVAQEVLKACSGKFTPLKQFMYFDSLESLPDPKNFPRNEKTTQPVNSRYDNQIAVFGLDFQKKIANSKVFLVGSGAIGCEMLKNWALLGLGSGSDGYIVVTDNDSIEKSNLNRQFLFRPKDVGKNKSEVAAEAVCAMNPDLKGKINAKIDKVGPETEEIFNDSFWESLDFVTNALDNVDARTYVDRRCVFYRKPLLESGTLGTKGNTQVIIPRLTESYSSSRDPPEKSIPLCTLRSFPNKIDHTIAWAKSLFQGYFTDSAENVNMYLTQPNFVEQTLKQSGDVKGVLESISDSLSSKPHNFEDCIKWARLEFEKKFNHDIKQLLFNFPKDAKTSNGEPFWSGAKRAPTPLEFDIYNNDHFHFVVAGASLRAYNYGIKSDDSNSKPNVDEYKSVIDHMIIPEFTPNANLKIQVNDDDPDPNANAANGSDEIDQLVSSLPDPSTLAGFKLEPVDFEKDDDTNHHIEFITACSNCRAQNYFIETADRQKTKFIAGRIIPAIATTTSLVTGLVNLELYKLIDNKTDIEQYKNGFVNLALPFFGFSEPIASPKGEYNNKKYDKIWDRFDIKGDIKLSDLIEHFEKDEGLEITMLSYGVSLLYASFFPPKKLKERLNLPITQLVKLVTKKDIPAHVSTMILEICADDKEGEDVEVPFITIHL

binding result [2]	Molecule	X-ray crystallography, 3.43 Å [1]
	Nc1ncnc2c1ncn2[C@@H]1O[C@H](COP(=O)(O)O)[C@@H](O)[C@H]1O [AMP]	strong electron density into which AMP (but not the β and γ phosphates of ATP)
binds	S. cerevisiae Cdc34 residues 1-195 with A141K (Cdc34^A141K) (enzyme, UniProt P14682 1-195, looked up, Lys141 (A141K) isopeptide-linked to Gly76 of Ub(t); Cys95 disulfide-linked to Cys600 of Uba1, Cdc34 (ubiquitin E2), S. cerevisiae, residues 1-195 (Cdc34^ΔCT) with A141K; Stands in the structure as the Cdc34^A141K-Ub(t) thioester mimetic cross-linked to Uba1; also called E2; Cdc34^ΔCT A141K; source: E. coli BL21 (DE3) Codon Plus, purified (Ni-NTA, Superdex 75, MonoQ); not shown: His6, N-terminal, cleaved) MSSRKSTASSLLLRQYRELTDPKKAIPSFHIELEDDSNIFTWNIGVMVLNEDSIYHGGFFKAQMRFPEDFPFSPPQFRFTPAIYHPNVYRDGRLCISILHQSGDPMTDEPDAETWSPVQTVESVLISIVSLLEDPNINSPKNVDAAVDYRKNPEQYKQRVKMEVERSKQDIPKGFIMPTSESAYISQSKLDEPES	
